Measured values: patent US20080171737A1 (Wyeth, priority 2006, published 2008)
pIC50: −log10 of the molar value. Structures can show the parent of a compound that is named as a salt.

What follows are compounds tested against T1, human hNET (Homo sapiens, UniProt P23975) (assay: Functional norepinephrine reuptake assay, Procedure B (6,000 cells/well)). Details: not given.
T1 construct: expressed in transfected cells; host or cells: MDCK-Net6 (MDCK cells stably transfected with hNET)
Assay type: cell-based
Method: For screening, 25 μl aliquots of compound solution at a 1 μM or 10 μM final concentration was delivered directly to cells.
For IC50 determinations, stock compounds were prepared at 10 mM from powder. The stock solution was diluted according to compound testing range. […] On the day of assay, 25 μl of compound solution at the specified concentrations were added to the plates containing cells. A DMSO stock of desipramine was prepared at 10 mM in DMSO and diluted for a final concentration of 20 μM to determine the non-specific reuptake.
MDCK-Net6 cells, stably transfected with human hNET (Pacholczyk, 1991), were maintained in growth media [high glucose DMEM (Gibco Cat. 11995), 10% FBS (dialyzed, heat-inactivated, Sigma, dialysed, heat inactivated, Lot# K0922 or equivalent) 1xPen/Strep, and 500 μg/ml G418 (Gibco Cat. 10131)]. Cells were plated at 300,000/T75 flask and cells split twice weekly.
Cells were plated at 50,000 cells/well (Procedure A) or 6,000 cells/well (Procedure B) on day 1 in BD Falcon Microtest 96-well sterile cell culture plates, Optilux White/Clear Bottom TC plate (VWR; # 62406-466 or equivalent) in growth media and maintained in a cell incubator (37° C., 5% CO2). On Day 2, cells were removed from the cell incubator and the growth media is replaced by 200 μl of assay buffer (25 mm HEPES 120 mM NaCL; 5 mM KCl; 2.5 mM CaCl2; 1.2 mM MgSO4; 2 mg/ml glucose (pH 7.4, 37° C.)) containing 0.2 mg/ml ascorbic acid and 1 μM parglyine. For screening, 25 μl of compound in 4% DMSO was added directly to each well and the plate was incubated for 5 minutes (37° C.). […] The reaction is aspirated from the plate and the cells washed with 250 μl of 50 mM Tris Buffer (4° C.). The plates were left to dry for 1 hour. The cells were lysed using 0.25 M NaOH solution then placed on a shake table and vigorously shaken for 10 minutes. After cell lysis, 100 μl of Microscint 20 (PerkinElmer; #87-051101) was added to the plates and the plates were sealed with film tape and replaced on the shake table for a minimum of 10 minutes. The plates were counted in a TopCount counter (PerkinElmer).
% inhibition=[1−((mean cpm test compound wells−mean cpm non-specific wells)/(mean cpm control wells−mean cpm non-specific wells))]×100
For IC50 determination, raw cpm values were generated in a data file from the TopCount counter. The data was organized using the Microsoft Excel and transferred into PRIZM graphing and statistical program, which calculated the estimated IC50 value. Calculation of IC50 values was made using non-linear regression analysis with a sigmoidal dose response with variable slope. The statistical program used wells containing ^3H norepinephrine only as the maximal NE reuptake determinant and wells containing ^3H norepinephrine plus 20 μM desipramine (AHR-9543) as the minimal NE reuptake determinant (non-specific determinant). Estimation of the IC50 value was completed on a log scale and the line was fit between the maximal and minimal NE reuptake values.

T1 sequence (P23975 whole entry): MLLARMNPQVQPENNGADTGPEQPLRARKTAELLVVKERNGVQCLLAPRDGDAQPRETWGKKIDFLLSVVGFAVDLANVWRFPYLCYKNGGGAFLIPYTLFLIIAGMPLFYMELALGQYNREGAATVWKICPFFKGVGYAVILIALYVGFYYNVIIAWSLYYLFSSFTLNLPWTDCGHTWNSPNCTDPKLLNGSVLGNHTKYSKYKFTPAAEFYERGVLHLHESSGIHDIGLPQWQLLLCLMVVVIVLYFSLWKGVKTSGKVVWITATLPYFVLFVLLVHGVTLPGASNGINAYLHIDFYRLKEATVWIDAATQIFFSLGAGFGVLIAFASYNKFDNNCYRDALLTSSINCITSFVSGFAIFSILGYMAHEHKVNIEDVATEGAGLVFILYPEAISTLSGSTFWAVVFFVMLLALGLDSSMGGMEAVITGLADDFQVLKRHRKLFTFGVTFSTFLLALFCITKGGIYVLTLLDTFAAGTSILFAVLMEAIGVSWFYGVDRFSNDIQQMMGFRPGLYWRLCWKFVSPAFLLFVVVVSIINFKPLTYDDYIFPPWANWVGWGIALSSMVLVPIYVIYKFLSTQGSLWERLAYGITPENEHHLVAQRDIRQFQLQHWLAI

Row | SMILES | pIC50
1 | CNCCC[C@H]1Cc2ccccc2N(c2c(F)cccc2F)S1(=O)=O (single isomer, unassigned) [Example 121] | 7.28
2 | CNCCC[C@@H]1Cc2ccccc2N(c2c(F)cccc2F)S1(=O)=O (single isomer, unassigned) [Example 122] | 8.30
3 | CNCCC[C@H]1Cc2cc(F)ccc2N(c2c(F)cccc2F)S1(=O)=O (single isomer, unassigned) [Example 155] | 7.60
4 | CNCCC[C@@H]1Cc2cc(F)ccc2N(c2c(F)cccc2F)S1(=O)=O (single isomer, unassigned) [Example 156] | 7.57

Same assay, conditions: MDCK-Net6 cells, 6,000 cells/well, 16 nM 3H-norepinephrine; read-out: Procedure B hNET uptake IC50

Row | SMILES | pIC50
5 | CNCC[C@@H](O)[C@@H]1Cc2ccccc2N(c2ccccc2)S1(=O)=O (single isomer, unassigned) [Example 115] | 6.26
6 | CNCC[C@@H](O)[C@H]1Cc2ccccc2N(c2ccccc2)S1(=O)=O (single isomer, unassigned) [Example 116] | 7.07
7 | CNCC[C@H](O)[C@H]1Cc2ccccc2N(c2ccccc2)S1(=O)=O (single isomer, unassigned) [Example 117] | 7.10
8 | CNCC[C@H]1Oc2cc(F)ccc2N(c2ccccc2)S1(=O)=O (single isomer, unassigned) [Example 118] | 6.84
9 | CNCC[C@@H]1Oc2cc(F)ccc2N(c2ccccc2)S1(=O)=O (single isomer, unassigned) [Example 119] | 6.31
10 | CNCCC[C@H]1Cc2ccccc2N(c2cccnc2)S1(=O)=O (single isomer, unassigned) [Example 124] | 5.77
11 | CNCCC[C@@H]1Cc2ccccc2N(c2cccnc2)S1(=O)=O (single isomer, unassigned) [Example 125] | 6.62
12 | CNCCC[C@H]1Cc2ccccc2N(c2ccccn2)S1(=O)=O (single isomer, unassigned) [Example 127] | 5.81
13 | CNCCC[C@@H]1Cc2ccccc2N(c2ccccn2)S1(=O)=O (single isomer, unassigned) [Example 128] | 7.05
14 | CNCCC[C@@H]1Oc2cc(F)ccc2N(c2ccccc2F)S1(=O)=O (single isomer, unassigned) [Example 130, Hydrochloride] | 7.35
15 | CNCCC[C@H]1Oc2cc(F)ccc2N(c2ccccc2F)S1(=O)=O (single isomer, unassigned) [Example 131, Hydrochloride] | 7.51
16 | CNCCC[C@H]1Cc2cc(F)ccc2N(c2cccc(F)c2F)S1(=O)=O (single isomer, unassigned) [Example 146] | 7.18
17 | CNCCC[C@@H]1Cc2cc(F)ccc2N(c2cccc(F)c2F)S1(=O)=O (single isomer, unassigned) [Example 147] | 7.47
18 | CNCCC[C@H]1Cc2cc(F)ccc2N(c2ccc(C)cc2F)S1(=O)=O (single isomer, unassigned) [Example 149] | 7.13
19 | CNCCC[C@@H]1Cc2cc(F)ccc2N(c2ccc(C)cc2F)S1(=O)=O (single isomer, unassigned) [Example 150] | 7.80
20 | CNCCC[C@H]1Cc2cc(F)ccc2N(c2cc(F)ccc2F)S1(=O)=O (single isomer, unassigned) [Example 152] | 7.40
21 | CNCCC[C@@H]1Cc2cc(F)ccc2N(c2cc(F)ccc2F)S1(=O)=O (single isomer, unassigned) [Example 153] | 7.37
22 | CNCCC[C@H]1Cc2cc(F)ccc2N(c2ccccc2Cl)S1(=O)=O (single isomer, unassigned) [Example 158] | 6.84
23 | CNCCC[C@@H]1Cc2cc(F)ccc2N(c2ccccc2Cl)S1(=O)=O (single isomer, unassigned) [Example 159] | 6.88
24 | CNCCC[C@H]1Cc2cc(F)ccc2N(c2ccccc2C)S1(=O)=O (single isomer, unassigned) [Example 161] | 6.84

Row | SMILES | pIC50
25 | CNCCC[C@@H]1Cc2cc(F)ccc2N(c2ccccc2C)S1(=O)=O (single isomer, unassigned) [Example 162] | 6.87
26 | CNCCC[C@H]1Cc2cc(F)ccc2N(c2ccccc2C#N)S1(=O)=O (single isomer, unassigned) [Example 164] | 6.54
27 | CNCCC[C@@H]1Cc2cc(F)ccc2N(c2ccccc2C#N)S1(=O)=O (single isomer, unassigned) [Example 165] | 6.69
28 | CNCCC[C@H]1Cc2cc(F)ccc2N(c2ccccc2OC)S1(=O)=O (single isomer, unassigned) [Example 167] | 6.23
29 | CNCCC[C@@H]1Cc2cc(F)ccc2N(c2ccccc2OC)S1(=O)=O (single isomer, unassigned) [Example 168] | 6.47
30 | CNCCC[C@H]1Cc2cc(F)ccc2N(c2ccc(F)cc2C)S1(=O)=O (single isomer, unassigned) [Example 170] | 6.46
31 | CNCCC[C@@H]1Cc2cc(F)ccc2N(c2ccc(F)cc2C)S1(=O)=O (single isomer, unassigned) [Example 171] | 6.49
32 | CNCCC[C@H]1Cc2cc(Cl)ccc2N(c2ccccc2F)S1(=O)=O (single isomer, unassigned) [Example 176] | 7.70
33 | CNCCC[C@@H]1Cc2cc(Cl)ccc2N(c2ccccc2F)S1(=O)=O (single isomer, unassigned) [Example 177] | 7.37
34 | CNCCCC1Oc2ccccc2N(c2ccc(F)cc2)S1(=O)=O (stereo not shown) [Example 15, 3-[1-(4-fluorophenyl)-2,2-dioxido-1H-4,2,1-benzoxathiazin-3-yl]-N-methylpropan-1-amine] | 6.31
35 | CNCCCC1Oc2ccccc2N(c2cccc(C)c2)S1(=O)=O (stereo not shown) [Example 16, N-methyl-3-[1-(3-methylphenyl)-2,2-dioxido-1H-4,2,1-benzoxathiazin-3-yl]propan-1-amine] | 6.44
36 | CNCCCC1Oc2ccccc2N(c2ccc(C)cc2)S1(=O)=O (stereo not shown) [Example 17, N-methyl-3-[1-(4-methylphenyl)-2,2-dioxido-1H-4,2,1-benzoxathiazin-3-yl]propan-1-amine] | 7.58
37 | CNCCCC1Oc2ccccc2N(c2cccc(OC)c2)S1(=O)=O (stereo not shown) [Example 18, 3-[1-(3-methoxyphenyl)-2,2-dioxido-1H-4,2,1-benzoxathiazin-3-yl]-N-methylpropan-1-amine] | 6.45
38 | CNCCCC1Oc2ccccc2N(c2ccc(OC)cc2)S1(=O)=O (stereo not shown) [Example 19, 3-[1-(4-methoxyphenyl)-2,2-dioxido-1H-4,2,1-benzoxathiazin-3-yl]-N-methylpropan-1-amine] | 5.92
39 | CNCCCC1Oc2ccccc2N(c2cccc(F)c2)S1(=O)=O (stereo not shown) [Example 20, 3-[1-(3-fluorophenyl)-2,2-dioxido-1H-4,2,1-benzoxathiazin-3-yl]-N-methylpropan-1-amine] | 6.97
40 | CNCCCC1Oc2ccccc2N(c2ccc3ccccc3c2)S1(=O)=O (stereo not shown) [Example 21, N-methyl-3-[1-(2-naphthyl)-2,2-dioxido-1H-4,2,1-benzoxathiazin-3-yl]propan-1-amine] | 5.34
41 | CNCCCC1Oc2ccccc2N(c2cc(C)cc(C)c2)S1(=O)=O (stereo not shown) [Example 22, 3-[1-(3,5-dimethylphenyl)-2,2-dioxido-1H-4,2,1-benzoxathiazin-3-yl]-N-methylpropan-1-amine] | 5.38
42 | CCNCCC1Oc2ccccc2N(c2ccccc2)S1(=O)=O (stereo not shown) [Example 23, 2-(2,2-dioxido-1-phenyl-1H-4,2,1-benzoxathiazin-3-yl)-N-ethylethanamine] | 6.61
43 | NCCC1Oc2ccccc2N(c2ccccc2)S1(=O)=O (stereo not shown) [Example 24, 2-(2,2-dioxido-1-phenyl-1H-4,2,1-benzoxathiazin-3-yl)ethanamine] | 6.23
